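96-well plates; 48 h exposure; 5 concentrations. Endpoints by linear interpolation between flanking doses. Not reached: highest tested concentration assigned. Definition used: TGI = concentration required for complete inhibition of growth.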
Experiments:
Test in all cases: growth of human tumour cells (NCI), 48 h
XF 498 CNS = test system: XF 498 CNS
DLD-1 colon = test system: DLD-1 colon
UACC-257 melanoma = test system: UACC-257 melanoma
KM12 colon = test system: KM12 colon
OVCAR-3 ovarian = test system: OVCAR-3 ovarian
SF-295 CNS = test system: SF-295 CNS
DMS 114 small cell lung = test system: DMS 114 small cell lung
786-0 renal = test system: 786-0 renal
A549 NSCLC = test system: A549 NSCLC
UO-31 renal = test system: UO-31 renal
SN12K1 renal = test system: SN12K1 renal
SK-MEL-28 melanoma = test system: SK-MEL-28 melanoma
U251 CNS = test system: U251 CNS
SN12C renal = test system: SN12C renal
M14 melanoma = test system: M14 melanoma
KM20L2 colon = test system: KM20L2 colon
HOP-18 NSCLC = test system: HOP-18 NSCLC
HCT-116 colon = test system: HCT-116 colon
OVCAR-4 ovarian = test system: OVCAR-4 ovarian
M19-MEL melanoma = test system: M19-MEL melanoma
TK-10 renal = test system: TK-10 renal
SNB-75 CNS = test system: SNB-75 CNS
RPMI-8226 leukemia = test system: RPMI-8226 leukemia
NCI-H226 lung = test system: NCI-H226 lung
ACHN renal = test system: ACHN renal
LOX IMVI melanoma = test system: LOX IMVI melanoma
COLO 205 colon = test system: COLO 205 colon
HT29 colon = test system: HT29 colon
MALME-3M melanoma = test system: MALME-3M melanoma
DMS 273 small cell lung = test system: DMS 273 small cell lung
NCI-H522 lung = test system: NCI-H522 lung
SK-MEL-5 melanoma = test system: SK-MEL-5 melanoma
HL-60(TB) leukemia = test system: HL-60(TB) leukemia
EKVX NSCLC = test system: EKVX NSCLC
HCT-15 colon = test system: HCT-15 colon
OVCAR-8 ovarian = test system: OVCAR-8 ovarian
NCI-H23 lung = test system: NCI-H23 lung
HOP-92 NSCLC = test system: HOP-92 NSCLC
SF-268 CNS = test system: SF-268 CNS
SF-539 CNS = test system: SF-539 CNS
SK-OV-3 ovarian = test system: SK-OV-3 ovarian
SW-620 colon = test system: SW-620 colon
RXF 393 renal = test system: RXF 393 renal
UACC-62 melanoma = test system: UACC-62 melanoma
LXFL 529 NSCLC = test system: LXFL 529 NSCLC
CAKI-1 renal = test system: CAKI-1 renal
SNB-19 CNS = test system: SNB-19 CNS
SK-MEL-2 melanoma = test system: SK-MEL-2 melanoma
MCF7 breast = test system: MCF7 breast
HOP-62 NSCLC = test system: HOP-62 NSCLC
SNB-78 CNS = test system: SNB-78 CNS
HCC-2998 colon = test system: HCC-2998 colon
NCI/ADR-RES ovarian = test system: NCI/ADR-RES ovarian
K-562 leukemia = test system: K-562 leukemia
CCRF-CEM leukemia = test system: CCRF-CEM leukemia
A498 renal = test system: A498 renal
NCI-H460 lung = test system: NCI-H460 lung
OVCAR-5 ovarian = test system: OVCAR-5 ovarian
IGROV1 ovarian = test system: IGROV1 ovarian

Compound: CN(C)CCNC(=O)c1cc([N+](=O)[O-])cc2ccc(-c3ccccc3)nc12
- TGI (XF 498 CNS): 21.7 µM
- TGI (DLD-1 colon): 39.5 µM
- TGI (UACC-257 melanoma): 20.8 µM
- TGI (KM12 colon): 49.6 µM
- TGI (OVCAR-3 ovarian): 54.3 µM
- TGI (SF-295 CNS): > 57.3 µM
- TGI (DMS 114 small cell lung): 28.6 µM
- TGI (786-0 renal): 94.3 µM
- TGI (A549 NSCLC): 28 µM
- TGI (UO-31 renal): 11.2 µM
- TGI (SN12K1 renal): 15.2 µM
- TGI (SK-MEL-28 melanoma): 27.4 µM
- TGI (U251 CNS): 32 µM
- TGI (SN12C renal): > 62.7 µM
- TGI (M14 melanoma): > 100 µM
- TGI (KM20L2 colon): 31.2 µM
- TGI (HOP-18 NSCLC): 26.3 µM
- TGI (HCT-116 colon): 13.4 µM
- TGI (OVCAR-4 ovarian): 13 µM
- TGI (M19-MEL melanoma): 20 µM
- TGI (TK-10 renal): 95.5 µM
- TGI (SNB-75 CNS): 23.8 µM
- TGI (RPMI-8226 leukemia): 70.2 µM
- TGI (NCI-H226 lung): 11.8 µM
- TGI (ACHN renal): 28.5 µM
- TGI (LOX IMVI melanoma): 30.5 µM
- TGI (COLO 205 colon): 21.6 µM
- TGI (HT29 colon): 40 µM
- TGI (MALME-3M melanoma): 19.5 µM
- TGI (DMS 273 small cell lung): 31.7 µM
- TGI (NCI-H522 lung): 17.2 µM
- TGI (SK-MEL-5 melanoma): 11.8 µM
- TGI (HL-60(TB) leukemia): 21.7 µM
- TGI (EKVX NSCLC): > 71.4 µM
- TGI (HCT-15 colon): > 56.6 µM
- TGI (OVCAR-8 ovarian): > 39.2 µM
- TGI (NCI-H23 lung): 27.6 µM
- TGI (HOP-92 NSCLC): 27.4 µM
- TGI (SF-268 CNS): 50 µM
- TGI (SF-539 CNS): 27.2 µM
- TGI (SK-OV-3 ovarian): 25.5 µM
- TGI (SW-620 colon): > 38.7 µM
- TGI (RXF 393 renal): 22.8 µM
- TGI (UACC-62 melanoma): 15.7 µM
- TGI (LXFL 529 NSCLC): 58 µM
- TGI (CAKI-1 renal): > 40.4 µM
- TGI (SNB-19 CNS): 35.5 µM
- TGI (SK-MEL-2 melanoma): 28.7 µM
- TGI (MCF7 breast): > 100 µM
- TGI (HOP-62 NSCLC): 38.1 µM
- TGI (SNB-78 CNS): > 60.9 µM
- TGI (HCC-2998 colon): 20.3 µM
- TGI (NCI/ADR-RES ovarian): 9.97 µM
- TGI (K-562 leukemia): 54.1 µM
- TGI (CCRF-CEM leukemia): 13.6 µM
- TGI (A498 renal): 14.4 µM
- TGI (NCI-H460 lung): 12.8 µM
- TGI (OVCAR-5 ovarian): 27.6 µM
- TGI (IGROV1 ovarian): 25.6 µM
